Assay results reported in patent publication US20230015647A1, “INHIBITORS OF HISTONE DEMETHYLASES (PFI-63 AND PFI-90) FOR THE TREATMENT OF CANCER AND FOR THE INHIBITION OF HISTONE DEMETHYLASE IN CELLS” (The United States of America,as represented by the …, priority 2019, published 2023).
“Also recorded” adds a separate entry of the source.

Assays:
[1] = system: truncated KDM3B catalytic domain; assay: CPMG relaxation editing NMR binding assay; conditions: 100 μM
Excerpt: (§1) A WaterLOGSY assay and a Carr-Purcell Meiboom-Gill (CPMG) based assay were used to investigate protein-ligand binding affinity between PFI-90 and a truncated KDM3B catalytic domain.
CPMG (Carr-Purcell-Meiboom-Gill) Relaxation Editing Proton NMR is another drug-discovery NMR experiment that may be used in conjunction with WaterLOGSY to orthogonally validate the presence of a reversible binding interaction of mild to high affinity from a small molecule to a label-free target. In contrast to WaterLOGSY, all peaks are phased above the X-axis. Instead, this experiment filters out the proportion of peak height that is contributed from the quantity of small molecule bound to a target of high molecular weight (e.g., a protein). Once the attenuation of peak height is equivalent to a 20% reduction, the compound is said to bind, with an increasing ratio of bound to unbound small molecules manifesting in increasing signal attenuation.

[2] = system: truncated KDM3B catalytic domain; assay: WaterLOGSY NMR binding assay; conditions: 100 μM
Excerpt: as §1
In traditional proton NMR experiments, a series of peaks are generated that represent the structure of a solitary small molecule, whereas the WaterLOGSY experiment examines the behavior of a small molecule's peaks in the presence of a potential target. This is achieved by observing differences in interaction between a small molecule interacting with water co-occupying a binding cleft on a target as compared to water dispersed freely in solution. The experiment then depicts the ratio of bound to unbound small molecule by phasing proton NMR spectra on the X-axis in opposing directions depending on the magnitude of that ratio (i.e., increasing ratios above 1 will phase positively, decreasing ratios below 1 will phase negatively).

[3] = system: PAX3-FOXO1 fusion transcription factor; assay: RH4 ALK-Luc luciferase reporter assay (PAX3-FOXO1 super enhancer activity); type: cell-based, human; conditions: RH4 ALK-Luc reporter
Description: The screen was performed using two derivatives of RH4 FP-RMS cells: • (1) “ALK-Luc cells”—RH4 cells expressing a pGreenFire green fluorescent protein (GFP)-luciferase reporter (SEQ ID NO: 1) controlled by the PAX3-FOXO1-dependent intronic ALK super enhancer (for reporting on PAX3-FOXO1 activity) (FIGS. 1 and 2); and • (2) “CMV-Luc cells”—control RH4 cells in which the reporter is transcribed from a constitutively active cytomegalovirus (CMV) promoter. An Example of visualization via the ALK-Luc reporter is depicted in FIG. 3.
The cells were enriched for reporter expression levels and used for assay development. A high throughput screening assay was developed after optimization of cell seeding density, length of incubation of cells prior to and post treatment with test compounds, and effect of passaging among other factors. The screen was designed to identify compounds that suppressed PAX3-FOXO1 activity without disrupting viability (at a short time points) or general transcription. The assay simultaneously monitors the function of the PAX3-FOXO1 super enhancer (also referred to as “ALK super enhancer”), general transcriptional activity as well as cell viability.
The visual summary of the screening strategy is illustrated in FIG. 4. ALK-Luc cells were seeded in both white-walled and white-bottomed 384-well plates (Perkin Elmer, Cat #6007658) for luciferase assays and in clear 384-well plates (Perkin Elmer, Cat #6007688) for viability assay (XTT reduction) by transferring 27 μL of cell suspensions (seeding 3000 cells per well) into each well. The plates were then transferred into an incubator for 18-20 h. The CMV-Luc cells were similarly seeded into white plates and incubated.
A pure compound library of 62,643 compounds consisting of synthetic and natural products described previously (Grohar et al., J Natl. Cancer Inst., 103: 962-978 (2011)) was then used in a high throughput screening campaign to identify inhibitors of PAX3-FOXO1. Stock DMSO Solutions of these compounds were used to prepare 100 μM solutions in growth medium in 384-well plates also containing 16 wells each of a positive control (Actinomycin D, Sigma, Cat #A1410) and negative control (DMSO). Screening compounds along with the positive and negative controls were added to assay plates by transferring 3 μL of the prepared 100 μM dilutions using an automated liquid handler (Agilent, Bravo). Treated plates were incubated for 24 h. At the end of this period, treated plates were allowed to equilibrate to room temperature for 30 minutes. SteadyLite Plus luciferase assay reagent powder (PerkinElmer, Cat #6066759) was reconstituted in its buffer in parallel and was also allowed to equilibrate to room temperature.
After transferring 30 μL of the luciferase assay reagent using a liquid handler, plates were further incubated at room temperature for 10 minutes. Finally, luminescence measurements were carried out using a multi-label microplate reader (BMG, Pherastar FSX) set in luminescence mode. Cell viability was assessed by adding XTT reagent (10 μL per well) in clear plates containing treated ALK-Luc cells. XTT treated plates were read using a plate reader in absorbance mode at 450 nm (PerkinElmer, Envision) after further incubation for 1 hour to allow cells to metabolize XTT to a colored formazan product. Luminescence and XTT absorbance values were normalized to the average of the negative controls on each plate and were calculated as a percentage of these controls. Performance of the screening assay was routinely monitored via calculation of Z-factor (Zhang et al., J. Biomol. Screen., 4: 67-73 (1999)) with Z′ for all plates found to be >0.7.
RH4 ALK-Luc and RH4 CMV-Luc cells were seeded into separate white-walled and bottomed 384-well plates and were incubated and treated with screen hits and epigenome compounds. The highest test concentration of these compounds (10-fold) were prepared from DMSO stock solutions via dilution in medium. […]

Structure (SMILES)	binding (CPMG) [1]	binding (WaterLOGSY) [2]	Avg Absorbance @ 1 μM, ALK-Luc [3]	Avg Absorbance @ 10 μM, ALK-Luc [3]
O=C(O)CCC(=O)C(=O)O [Compound 2-OG, 2-oxoglutaric acid, reference compound]	did not bind; also recorded: does not bind	did not bind; also recorded: does not bind	–	–
O=C(NNC(=O)c1ccccn1)c1ccccc1 [PFI-65]	–	–	103.5	109.2
NNC(=O)c1cccc(C(=O)NN)n1 [PFI-66]	–	–	91.6	91.3
Cc1cccc(C(=O)NNC(=O)c2cccc(C)c2)c1 [PFI-67]	–	–	94.6	112.8
CC(=O)NNC(=O)c1ccccn1 [PFI-68]	–	–	95.0	98.0
CCC(=O)NNC(=O)c1ccccn1 [PFI-69]	–	–	104.3	94.4
O=CNNC(=O)c1ccccn1 [PFI-70]	–	–	99.7	93.3
NNC(=O)c1ccc(C(=O)NN)nc1 [PFI-71]	–	–	100.1	108.6
O=C(NNC(=O)c1cccc(C(=O)NNC(=O)c2ccc(Cl)c(Cl)c2)n1)c1ccc(Cl)c(Cl)c1 [PFI-72]	–	–	–	91.1
Cc1cccc(C(=O)NNC(=O)c2ccccc2)c1 [PFI-73]	–	–	98.3	122.8
CCCC(=O)NNC(=O)c1ccccn1 [PFI-74]	–	–	102.4	94.7
Cc1nc(C)c(C(=O)NNC(=O)c2ccccc2)cc1C(=O)NNC(=O)c1ccccc1 [PFI-75]	–	–	100.2	110.5
CC(=O)NNC(=O)c1cnccn1 [PFI-76]	–	–	105.6	100.2
O=CNNC(=O)c1cnccn1 [PFI-77]	–	–	95.8	96.5
Cc1nc(C)c(C(=O)NN)cc1C(=O)NN [PFI-78]	–	–	100.3	95.3
NNC(=O)c1ccc(C(=O)NN)o1 [PFI-79]	–	–	97.0	97.6
CC(=O)NNC(=O)c1ccc2ccccc2n1 [PFI-80]	–	–	90.1	96.6
CCC(CC)C(=O)NNC(=O)c1ccccn1 [PFI-81]	–	–	97.7	89.1
O=C(NNC(=O)c1ccccn1)c1ccccn1 [PFI-82]	–	–	112.4	107.1
O=C(Cc1ccc(Cl)cc1)NNC(=O)c1ccccn1 [PFI-83]	–	–	97.8	32.2
Cc1cc(C)cc(OCC(=O)NNC(=O)c2ccccn2)c1 [PFI-84]	–	–	99.4	56.5
CS(=O)(=O)NCCc1ccc(C(=O)NNC(=O)c2ccccn2)cc1 [PFI-85]	–	–	99.7	100.2
Cc1cc(C)cc(C(=O)NNC(=O)c2ccc(O)cc2)c1 [PFI-86]	–	–	97.7	84.1
COCc1cccc(C(=O)NNC(=O)c2ccccn2)c1 [PFI-87]	–	–	115.5	120.4
Cc1cccc(C(=O)NNC(=O)c2ccccc2)c1 [PFI-88]	–	–	91.6	121.4
CC(C)CC(=O)NNC(=O)c1ccco1 [PFI-89]	–	–	95.1	92.5
